Test results: patent publication EP0163240A2, “Dihydroimidazo[1,2-a]pyrimidine derivatives, methods of preparing said compounds and pharmaceutical compositions constaining said compounds” (priority 1984, dated 1985)
Where a name gives a salt, the structure may show the parent alone. Read-outs that look alike come from different tables or passages of the source.

Legend:
[1] = system: coronary blood flow; test: Effect on coronary blood flow; type: in vivo, Adult mongrel dogs; details: for ED50: dose required to increase the coronary blood flow by a half of the effects of nifedipine, injected into the coronary artery, anesthetized dogs; for T 1/2: half-life measured as the duration of effects on coronary blood flow
Procedure: Pharmacological experiment 2: Effect on coronary blood flow Adult mongrel dogs were anesthetized with sodium pentobarbital (30 mg/kg, i.v.). According to the method of Yago et al described in Folia Pharmacol. Japon, vol. 57, 380 (1961), the left coronary artery was perfused and its blood flow was measured. […] The half-life (T 1/2, minute) was measured as the duration of effects.

[2] = system: liver mitochondria; test: Effect on lipid peroxidation (malondialdehyde formation in liver mitochondria, thiobarbituric acid method); type: biochemical, Male Sprague-Dawley rats; details: 50% inhibitory concentration on the formation of malondialdehyde; ascorbic acid, ferrous sulfate; 25°C for 30 minutes
Procedure: Pharmacological experiment 4: Effect on lipid peroxidation
Male Sprague-Dawley rats weighing 300-350 g were used. According to the method of Shimada et al described in Biochim. Biophys. Acta, vol. 572, 531 (1979), the liver mitochondria were isolated and ascorbic acid, ferrous sulfate, potassium chloride and Tris-HC1 buffer were added. To the solution was added test compound dissolved in dimethyl sulfoxide, and the mixture was incubated at 25°C for 30 minutes. The amount of malondialdehyde was determined by the thiobarbituric acid method and the 50% inhibitory concentration (IC50, µmol) of test compound on the formation of malondialdehyde was measured.

[3] = system: ddY strain mice; type: in vivo
Source text: (§1) Pharmacological experiment 7: Toxicity
Test compounds A, B, C, E and S were orally administered to five ddY strain mice.

[4] = system: vertebral blood flow; test: Effect on vertebral blood flow; type: in vivo, Adult mongrel dogs; details: for ED100: dose required to obtain 100% of the increase of blood flow by 100 µg of papaverine hydrochloride, injected in the vertebral artery, anesthetized dogs; for T 1/2: half-life measured as the duration of effects on vertebral blood flow
Procedure: Pharmacological experiment 3: Effect on vertebral blood flow Adult mongrel dogs were anesthetized with sodium pentobarbital (25 mg/kg, i.v.). The right vertebral artery was perfused and the blood flow was measured. Test compound was injected in the vertebral artery. […] Half-life (T 1/2, minute) was measured as the duration of effects.

[5] = system: Trachea of guinea pig; test: Anticholinergic activity (ACh-contracted tracheal strip chain preparation); details: for IC50: Cavia porcellus, read-out: 50% inhibitory concentration (IC50) on ACh-induced contraction; for relaxant effect on ACh-contracted preparation: 10^-7-10^-5M
Procedure: (§2) Each of 30 mg/kg of test compounds A and Q was orally administered to five male spontaneously hypertensive rats and the blood pressure was measured by the tail cuff method. The blood pressure lowering value after 1 hour administration of test compound A was 48 mmHg and that value after 5 hours administration of test compound Q was 64 mmHg. Pharmacological experiment 6: Anticholinergic activity
Trachea of guinea pig, weighing 380-550 g, was isolated and prepared its strip chain preparation. The preparation was mounted in organ bath filled with Krebs-Henseleit solution gassed with 95% 02 and 5% CO2. Length of the preparation was measured by isometric transducer (MEC, ME-4012). The preparation was contracted by 10^-6 M of acetylcholine (ACh) and then, test compounds were added cumulatively into the bath to observe relaxant effect.
as §1

[6] = system: spontaneously hypertensive rats; test: Effect on hypertension (tail cuff method); type: in vivo, male spontaneously hypertensive rats; details: 30 mg/kg orally
Procedure: Pharmacological experiment 5: Effect on hypertension
as §2

[7] = oral dose of 1000 mg/kg, five mice
[8] = preparation contracted by 10^-6 M of acetylcholine (ACh), cumulative addition

| IC50 [2] [nM] | SMILES | ED50 [1] [µg] | T 1/2 [1] [min] | ED100 [4] [µg] | T 1/2 [4] [min] | further results |
| --- | --- | --- | --- | --- | --- | --- |
| – | CCOC(=O)C1=C(C)Nc2ncc([N+](=O)[O-])n2C1c1ccccc1C(F)(F)F (centres unmarked) [Compound M, Ethyl 7-methyl-3-nitro-5-(2-trifluoromethylphenyl)-5,8-dihydroimidazo[1,2-a]pyrimidine-6-carboxylate] | 5 | 1.0 | – | – | – |
| – | CCN(CC)Cc1cnc2n1C(c1cccc([N+](=O)[O-])c1)C(C(=O)OCCOC)=C(C)N2 (centres unmarked) [Compound J, 2-Methoxyethyl 3-diethylaminomethyl-7-methyl-5-(3-nitrophenyl)-5,8-dihydroimidazo[1,2-a]pyrimidine-6-carboxylate] | 5 | 1.7 | – | – | – |
| – | COC(=O)C1=C(C)Nc2ncc(CN3CCCC3)n2C1c1cccc([N+](=O)[O-])c1 (centres unmarked) [Compound P, Methyl 7-methyl-5-(3-nitrophenyl)-3-(1-pyrrolidinylmethyl)-5,8-dihydroimidazo[1,2-a] pyrimidine-6-carboxylate dihydrochloride] | – | – | 6 | 0.6 | IC50 [5, 8]: 2300 nM |
| – | CN1[C@@H]2CC[C@H]1C[C@@H](OC(=O)C(CO)c1ccccc1)C2 (some centres unmarked) [atropine, reference compound] | – | – | – | – | IC50 [5]: 0.74 nM |
| – | COC(=O)C1=C(C)Nc2ncc(CNc3ccccc3C(F)(F)F)n2C1c1cccc([N+](=O)[O-])c1 (centres unmarked) [Compound S, Methyl 7-methyl-5-(3-nitrophenyl)-3-(2-trifluoromethylphenyl)aminomethyl-5,8-dihydroimidazo[1,2-a]pyrimidine-6-carboxylate] | – | – | – | – | survival [3, 7]: All mice were survived |
| 700 | CCOC(=O)C1=C(C)Nc2ncc(N(C)Cc3ccccc3)n2C1c1cccc([N+](=O)[O-])c1 (centres unmarked) [Compound R, Ethyl 7-methyl-5-(3-nitrophenyl)-3-(N-benzyl-N-methyl)amino-5,8-dihydroimidazo[1,2-a]pyrimidine-6-carboxylate] | – | – | – | – | – |
| – | COC(=O)C1=C(C)Nc2ncc(CN(C(C)C)C(C)C)n2C1c1cccc([N+](=O)[O-])c1 (centres unmarked) [Compound K, Methyl 3-diisopropylaminomethyl-7-methyl-5-(3-nitrophenyl)-5,8-dihydroimidazo[1,2-a]pyrimidine-6-carboxylate] | 6 | 1.5 | – | – | – |
| – | COC(=O)C1=C(C)Nc2ncc(COC(C)C)n2C1c1cccc([N+](=O)[O-])c1 (centres unmarked) [Compound L, Methyl 3-isopropoxymethyl-7-methyl-5-(3-nitrophenyl)-5,8-dihydroimidazo[1,2-a]pyrimidine-6-carboxylate] | 5 | 1.0 | – | – | – |
| – | CCN(CC)Cc1cnc2n1C(c1cccc([N+](=O)[O-])c1)C(C(=O)OC(CN1CCCCC1)c1ccccc1)=C(C)N2 (single isomer, unassigned) [Compound Q, 2-Piperidino-1-phenylethyl 3-diethylaminomethyl-7-methyl-5-(3-nitrophenyl)-5,8-dihydroimidazo [1,2-a]pyrimidine-6-carboxylate (β-form)] | – | – | 18 | 4.0 | blood pressure lowering value ([6]; after 5 hours): 64 mmHg |
| – | CCOC(=O)C1=C(C)Nc2ncc(CNCc3ccccc3)n2C1c1cccc([N+](=O)[O-])c1.Cl.Cl (centres unmarked) [Compound N, Ethyl 3-benzylaminomethyl-7-methyl-5-(3-nitrophenyl)-5,8-dihydroimidazo[1,2-a]pyrimidine-6-carboxylate dihydrochloride] | – | – | 10 | 0.7 | – |
| – | CCOC(=O)C1=C(C)Nc2ncc(CN(CC)CC)n2C1c1ccccc1[N+](=O)[O-].Cl.Cl.O (centres unmarked) [Compound I, Ethyl 3-diethylaminomethyl-7-methyl-5-(2-nitrophenyl)-5,8-dihydroimidazo[1,2-a]pyrimidine-6-carboxylate dihydrochloride monohydrate] | 10 | 2.0 | – | – | – |
| 200 | CCOC(=O)C1=C(C)Nc2ncc(N3CCCC3)n2C1c1cccc([N+](=O)[O-])c1 (stereo not drawn) [Compound D, Ethyl 7-methyl-5-(3-nitrophenyl)-3-(l-pyrrolidinyl)-5,8-dihydroimidazo[1,2-a]pyrimidine-6-carboxylate] | 8 | 1.3 | – | – | – |
| – | CCCN(CCC)Cc1cnc2n1C(c1cccc([N+](=O)[O-])c1)C(C(=O)OC)=C(C)N2 (centres unmarked) [Compound H, Methyl 3-dipropylaminomethyl-7-methyl-5-(3-nitrophenyl)-5,8-dihydroimidazo[1,2-a]pyrimidine-6-carboxylate] | 7 | 1.0 | 2 | 1.0 | – |
| 10000 | CCOCc1cnc2n1C(c1cccc([N+](=O)[O-])c1)C(C(=O)OCC)=C(C)N2 (centres unmarked) [Compound G, Ethyl 3-ethoxymethyl-7-methyl-5-(3-nitrophenyl)-5,8-dihydroimidazo[1,2-a]pyrimidine-6-carboxylate] | 7 | 1.0 | – | – | – |
| – | CCOC(=O)C1=C(C)Nc2ncc(CN(C)Cc3ccccc3)n2C1c1cccc([N+](=O)[O-])c1.Cl.Cl.O (centres unmarked) [Compound C, Ethyl 3-(N-benzyl-N-methylamino)methyl-7-methyl-5-(3-nitrophenyl)-5,8-dihydroimidazo[1,2-a] pyrimidine-6-carboxylate dihydrochloride monohydrate] | 10 | 1.5 | 5 | 1.5 | survival ([3]; mouse, in vivo, po, 1000 mg/kg): All mice were survived |
| 2000 | CCOC(=O)C1=C(C)Nc2ncc(N(CC)CC)n2C1c1cccc([N+](=O)[O-])c1 (centres unmarked) [Compound F, Ethyl 3-diethylamino-7-methyl-5-(3-nitrophenyl)-5,8-dihydroimidazo[1,2-a]pyrimidine-6-carboxylate] | 12 | 1.0 | – | – | – |
| – | CCCCNCc1cnc2n1C(c1cccc([N+](=O)[O-])c1)C(C(=O)OCC)=C(C)N2.Cl.Cl (centres unmarked) [Compound O, Ethyl 3-butylaminomethyl-7-methyl-5-(3-nitrophenyl)-5,8-dihydroimidazo[1,2-a]pyrimidine-6-carboxylate dihydrochloride] | – | – | 15 | 0.7 | – |

| SMILES | IC50 [2] [nM] | ED50 [1] [µg] | T 1/2 [1] [min] | ED100 [4] [µg] | T 1/2 [4] [min] | further results |
| --- | --- | --- | --- | --- | --- | --- |
| CCN(CC)Cc1cnc2n1C(c1ccccc1C(F)(F)F)C(C(=O)OC)=C(C)N2 (centres unmarked) [Compound E, Methyl 3-diethylaminomethyl-7-methyl-5-(2-trifluoromethylphenyl)-5,8-dihydroimidazo[1,2-a] pyrimidine-6-carboxylate] | 15000 | 5 | 1.0 | – | – | survival [3, 7]: All mice were survived |
| CCOC(=O)C1=C(C)Nc2ncc(CN(CC)CC)n2C1c1cccc([N+](=O)[O-])c1 (centres unmarked) [Compound B, Ethyl 3-diethylaminomethyl-7-methyl-5-(3-nitrophenyl)-5,8-dihydroimidazo[l,2-a]pyrimidine-6-carboxylate hydrochloride] | 20000 | 3 | 1.5 | 10 | 0.8 | relaxant effect on ACh-contracted preparation [5]: relaxed ACh-contracted preparation in a concentration-dependent manner; IC50 [5, 8]: 4000 nM; survival ([3]; mouse, in vivo, po, 1000 mg/kg): All mice were survived |
| CCN(CC)Cc1cnc2n1C(c1cccc([N+](=O)[O-])c1)C(C(=O)OC)=C(C)N2 (centres unmarked) [Compound A, Methyl 3-diethylaminomethyl-7-methyl-5-(3-nitrophenyl)-5,8-dihydroimidazo[l,2-a]pyrimidine-6-carboxylate hydrochloride] | 50000 | 2 | 1.0 | 2 | 0.9 | blood pressure lowering value ([6]; after 1 hour): 48 mmHg; relaxant effect on ACh-contracted preparation [5]: relaxed ACh-contracted preparation in a concentration-dependent manner; IC50 [5, 8]: 1600 nM; survival ([3]; mouse, in vivo, po, 1000 mg/kg): All mice were survived |
